US11345708B2, “Substituted imidazo[1,2-a]imidazoles as modulators of metabotropic glutamate receptor 4 activity” (Hoffmann-La Roche Inc., priority 2017, dated 2022)

Target: T1, human mGlu4 receptor (Homo sapiens, UniProt Q14833)
T1 construct: expressed in transfected cells; host or cells: HEK-293 (monoclonal, stably transfected)
Experiment: Ca2+ mobilization in vitro assay on recombinant human mGlu4 expressed in HEK293 cells
Format: cell-based
Conditions: HEK-293 cells stably expressing human mGlu4; L-AP4 added at EC20; Fluo-4 fluorescence; read-out: EC50 (uM) mGlu4 PAM
Experimental: Determination of EC50 Values Using a Ca2+ Mobilization In Vitro Assay on Recombinant Human mGlu4 Expressed in HEK293 Cells:
A monoclonal HEK-293 cell line stably transfected with a cDNA encoding for the human mGlu4 receptor was generated; for the work with mGlu4 Positive Allosteric Modulators (PAMs), a cell line with low receptor expression levels and low constitutive receptor activity was selected to allow the differentiation of agonistic versus PAM activity. Cells were cultured according to standard protocols (Freshney, 2000) in Dulbecco's Modified Eagle Medium with high glucose supplemented with 1 mM glutamine, 10% (vol/vol) heat-inactivated bovine calf serum, Penicillin/Streptomycin, 50 μg/ml hygromycin and 15 μg/ml blasticidin (all cell culture reagents and antibiotics from Invitrogen, Basel, Switzerland).
About 24 hrs before an experiment, 5×10^4 cells/well were seeded in poly-D-lysine coated, black/clear-bottomed 96-well plates. The cells were loaded with 2.5 μM Fluo-4 AM in loading buffer (1×HBSS, 20 mM HEPES) for 1 hr at 37° C. and washed five times with loading buffer. The cells were transferred into a Functional Drug Screening System 7000 (Hamamatsu, Paris, France), and 11 half logarithmic serial dilutions of test compound at 37° C. were added and the cells were incubated for 10-30 min. with on-line recording of fluorescence. Following this pre-incubation step, the agonist (2S)-2-amino-4-phosphonobutanoic acid (L-AP4) was added to the cells at a concentration corresponding to EC20 with on-line recording of fluorescence; in order to account for day-to-day variations in the responsiveness of cells, the EC20 of L-AP4 was determined immediately ahead of each experiment by recording of a full dose-response curve of L-AP4.
Responses were measured as peak increase in fluorescence minus basal (i.e. fluorescence without addition of L-AP4), normalized to the maximal stimulatory effect obtained with saturating concentrations of L-AP4. Graphs were plotted with the % maximal stimulatory using XLfit, a curve fitting program that iteratively plots the data using Levenburg Marquardt algorithm. The single site competition analysis equation used was y=A+((B−A)/(1+((x/C)D))), where y is the % maximal stimulatory effect, A is the minimum y, B is the maximum y, C is the EC50, x is the log 10 of the concentration of the competing compound and D is the slope of the curve (the Hill Coefficient). From these curves the EC50 (drug concentration at which 50% of the maximal receptor activation was achieved), the Hill coefficient as well as the maximal response in % of the maximal stimulatory effect obtained with saturating concentrations of L-AP4 were calculated (see Fig. 1).
A depression of the signal observed after addition of the EC20 concentration of L-AP4 was indicative of an inhibitory activity of the test compound.

T1 sequence (Q14833 33-912): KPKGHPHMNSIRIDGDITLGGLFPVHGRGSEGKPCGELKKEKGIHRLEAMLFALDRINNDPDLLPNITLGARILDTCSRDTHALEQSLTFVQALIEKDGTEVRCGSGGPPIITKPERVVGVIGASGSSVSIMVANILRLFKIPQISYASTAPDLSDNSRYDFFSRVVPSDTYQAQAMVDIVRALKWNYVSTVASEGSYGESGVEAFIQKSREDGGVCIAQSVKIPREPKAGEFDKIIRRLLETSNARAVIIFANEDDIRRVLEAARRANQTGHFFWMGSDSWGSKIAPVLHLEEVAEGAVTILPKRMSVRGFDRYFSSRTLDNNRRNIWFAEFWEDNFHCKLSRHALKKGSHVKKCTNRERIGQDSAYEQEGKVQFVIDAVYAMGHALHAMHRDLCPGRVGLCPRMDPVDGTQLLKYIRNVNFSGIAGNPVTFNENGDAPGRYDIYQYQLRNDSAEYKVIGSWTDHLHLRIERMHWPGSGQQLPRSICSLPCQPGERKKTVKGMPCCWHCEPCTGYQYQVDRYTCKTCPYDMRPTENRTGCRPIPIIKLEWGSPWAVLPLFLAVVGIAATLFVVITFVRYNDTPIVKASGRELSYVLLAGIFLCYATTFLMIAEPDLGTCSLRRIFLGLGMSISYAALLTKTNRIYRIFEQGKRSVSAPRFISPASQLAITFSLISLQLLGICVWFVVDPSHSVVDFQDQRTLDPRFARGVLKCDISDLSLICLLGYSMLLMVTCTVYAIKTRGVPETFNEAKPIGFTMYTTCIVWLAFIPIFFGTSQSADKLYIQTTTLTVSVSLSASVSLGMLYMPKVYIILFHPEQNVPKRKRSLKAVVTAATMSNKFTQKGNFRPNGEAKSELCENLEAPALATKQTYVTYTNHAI

| EC50 [µM] | SMILES |
| --- | --- |
| 0.566 | O=C1N(c2c(F)cc(C#Cc3cccnc3)cc2F)c2ncc(-c3cccnc3)n2C12CC2 [Example 39, 1′-(2,6-difluoro-4-(pyridin-3-ylethynyl)phenyl)-5′-(pyridin-3-yl)spiro[cyclopropane-1,3′-imidazo[1,2-a]imidazol]-2′(1′H)-one] |
| 0.206 | CC(F)(F)c1ccc(-c2cc(F)c(N3C(=O)C4(CC4)n4c(-c5cc[nH]n5)cnc43)c(F)c2)cc1 [Example 40, 1′-(4′-(1,1-difluoroethyl)-3,5-difluoro-[1,1′-biphenyl]-4-yl)-5′-(1H-pyrazol-3-yl)spiro[cyclopropane-1,3′-imidazo[1,2-a]imidazol]-2′(1′H)-one] |
| 0.238 | O=C1N(c2c(F)cc(C#Cc3ccccc3)cc2F)c2ncc(-c3cn[nH]c3)n2C12CC2 [Example 41, 3-[2,6-Difluoro-4-(2-phenylethynyl)phenyl]-6-(1H-pyrazol-4-yl)-2,3-dihydrospiro[[1,3]diazolo[1,2-a]imidazole-1,1′-cyclopropane]-2-one] |
| 0.417 | O=C1N(c2c(F)cc(N3CCN(CC(F)(F)F)CC3)cc2F)c2ncc(-c3cc[nH]n3)n2C12CC2 [Example 42, 7′-[2,6-difluoro-4-[4-(2,2,2-trifluoroethyl)piperazin-1-yl]phenyl]-3′-(1H-pyrazol-3-yl)spiro[cyclopropane-1,5′-imidazo[1,2-a]imidazole]-6′-one] |
| 0.015 | O=C(Nc1cc(F)c(N2C(=O)C3(CC3)n3c(-c4cc[nH]n4)cnc32)c(F)c1)c1ccccn1 [Example 43, N-[3,5-difluoro-4-[6′-oxo-3′-(1H-pyrazol-3-yl)spiro[cyclopropane-1,5′-imidazo[1,2-a]imidazole]-7′-yl]phenyl]pyridine-2-carboxamide] |
| 0.422 | Cn1nccc1-c1cnc2n1C1(CC1)C(=O)N2c1c(F)cc(C#Cc2ccccc2)cc1F [Example 44, 7′-[2,6-difluoro-4-(2-phenylethynyl)phenyl]-3′-(2-methylpyrazol-3-yl)spiro[cyclopropane-1,5′-imidazo[1,2-a]imidazole]-6′-one] |
| 0.621 | Cn1ccc(-c2cnc3n2C2(CC2)C(=O)N3c2c(F)cc(-c3ccc(OC(F)F)cc3)cc2F)n1 [Example 45, 7′-[4-[4-(difluoromethoxy)phenyl]-2,6-difluoro-phenyl]-3′-(1-methylpyrazol-3-yl)spiro[cyclopropane-1,5′-imidazo[1,2-a]imidazole]-6′-one] |
| 0.673 | Cn1nccc1-c1cnc2n1C1(CC1)C(=O)N2c1c(F)cc(C#Cc2cccnc2)cc1F [Example 46, 7′-[2,6-difluoro-4-[2-(3-pyridyl)ethynyl]phenyl]-3′-(2-methylpyrazol-3-yl)spiro[cyclopropane-1,5′-imidazo[1,2-a]imidazole]-6′-one] |
| 0.181 | Cc1cnc2n1C1(CC1)C(=O)N2c1c(F)cc(C#Cc2ccccc2)cc1F [Example 47, 3-[2,6-Difluoro-4-(2-phenylethynyl)phenyl]-6-methyl-2,3-dihydrospiro[[1,3]diazolo[1,2-a]imidazole-1,1′-cyclopropane]-2-one] |
| 0.377 | Cc1cnc2n1C1(CC1)C(=O)N2c1c(F)cc(NC(=O)c2ccccn2)cc1F [Example 48, N-[3,5-difluoro-4-(3′-methyl-6′-oxo-spiro[cyclopropane-1,5′-imidazo[1,2-a]imidazole]-7′-yl)phenyl]pyridine-2-carboxamide] |
| 0.829 | Cc1cnc2n1C1(CC1)C(=O)N2c1c(F)cc(C#Cc2cccnc2)cc1F [Example 49, 7′-[2,6-difluoro-4-[2-(3-pyridyl)ethynyl]phenyl]-3′-methyl-spiro[cyclopropane-1,5′-imidazo[1,2-a]imidazole]-6′-one] |
| 0.322 | O=C1N(c2c(F)cc(C#Cc3ccccc3)cc2F)c2ncc(C3(O)COC3)n2C12CC2 [Example 50, 7′-[2,6-difluoro-4-(2-phenylethynyl)phenyl]-3′-(3-hydroxyoxetan-3-yl)spiro[cyclopropane-1,5′-imidazo[1,2-a]imidazole]-6′-one] |
| 0.363 | O=C(Nc1cc(F)c(N2C(=O)C3(CC3)n3c(C4(O)COC4)cnc32)c(F)c1)c1ccccn1 [Example 51, N-[3,5-difluoro-4-[3′-(3-hydroxyoxetan-3-yl)-6′-oxo-spiro[cyclopropane-1,5′-imidazo[1,2-a]imidazole]-7′-yl]phenyl]pyridine-2-carboxamide] |
| 0.905 | CC(C)(C)c1cnn(-c2cc(F)c(N3C(=O)C4(CC4)n4c(C5(O)COC5)cnc43)c(F)c2)c1 [Example 52, 7′-[4-(4-tert-butylpyrazol-1-yl)-2,6-difluoro-phenyl]-3′-(3-hydroxyoxetan-3-yl)spiro[cyclopropane-1,5′-imidazo[1,2-a]imidazole]-6′-one] |
| 0.69 | CS(=O)(=O)c1cnc2n1C1(CC1)C(=O)N2c1c(F)cc(C#Cc2ccccc2)cc1F [Example 53, 3′-[2,6-Difluoro-4-(2-phenylethynyl)phenyl]-6′-methanesulfonyl-2′,3′-dihydrospiro[cyclopropane-1,1′-imidazo[1,2-a][1,3]diazole]-2′-one] |
| 0.808 | O=C1CCN1c1cnc2n1C1(CC1)C(=O)N2c1c(F)cc(C#Cc2cccnc2)cc1F [Example 54, 7′-[2,6-difluoro-4-[2-(3-pyridyl)ethynyl]phenyl]-3′-(2-oxoazetidin-1-yl)spiro[cyclopropane-1,5′-imidazo[1,2-a]imidazole]-6′-one] |
| 0.294 | O=C1N(c2c(F)cc(C#Cc3ccccc3)cc2F)c2ncc(CO)n2C12CC2 [Example 55, 7′-[2,6-difluoro-4-(2-phenylethynyl)phenyl]-3′-(hydroxymethyl)spiro[cyclopropane-1,5′-imidazo[1,2-a]imidazole]-6′-one] |
| 0.834 | O=C(Nc1cc(F)c(N2C(=O)C3(CC3)n3c(CO)cnc32)c(F)c1)c1ccccn1 [Example 56, N-[3,5-difluoro-4-[3′-(hydroxymethyl)-6′-oxo-spiro[cyclopropane-1,5′-imidazo[1,2-a]imidazole]-7′-yl]phenyl]pyridine-2-carboxamide] |
| 0.572 | CC(O)c1cnc2n1C1(CC1)C(=O)N2c1c(F)cc(NC(=O)c2ccccn2)cc1F (stereo not drawn) [Example 57, N-[3,5-difluoro-4-[3′-(1-hydroxyethyl)-6′-oxo-spiro[cyclopropane-1,5′-imidazo[1,2-a]imidazole]-7′-yl]phenyl]pyridine-2-carboxamide] |
| 0.842 | CC(O)c1cnc2n1C1(CC1)C(=O)N2c1c(F)cc(-n2cc(C(C)(C)C)cn2)cc1F (stereo not drawn) [Example 58, 7′-[4-(4-tert-butylpyrazol-1-yl)-2,6-difluoro-phenyl]-3′-(1-hydroxyethyl)spiro[cyclopropane-1,5′-imidazo[1,2-a]imidazole]-6′-one] |
| 0.824 | CC(O)c1cnc2n1C1(CC1)C(=O)N2c1c(F)cc(C#Cc2ccccc2)cc1F (stereo not drawn) [Example 59, 7′-[2,6-difluoro-4-(2-phenylethynyl)phenyl]-3′-(1-hydroxyethyl)spiro[cyclopropane-1,5′-imidazo[1,2-a]imidazole]-6′-one] |

Tested on: mice
Experiment: not given
Conditions: mice treated with MPTP; cited from earlier work

| SMILES | nigrostriatal degeneration |
| --- | --- |
| O=C(Nc1ccccc1)C12CC1/C(=N\O)c1ccccc1O2 (single isomer, unassigned; (-)) [(−)-PHCCC] | reduced nigrostriatal degeneration |

Tested on: mice
Experiment: not given
Conditions: reported by Addex 2010; cited from earlier work

| SMILES | activity in marble burying test |
| --- | --- |
| Cc1ccnc(Nc2nc(-c3cn[nH]c3)c(C)s2)n1 [ADX88178] | active |

Tested on: mice
Experiment: not given
Conditions: reported by Addex 2010; cited from earlier work
Remark: another data set of the same source

| SMILES | activity in EPM |
| --- | --- |
| Cc1ccnc(Nc2nc(-c3cn[nH]c3)c(C)s2)n1 [ADX88178] | active |

Tested on: rats
Experiment: not given
Conditions: rat; after oral dosing; cited from earlier work

| SMILES | profile in rat EPM test |
| --- | --- |
| Cc1ccnc(Nc2nc(-c3cn[nH]c3)c(C)s2)n1 [ADX88178] | anxiolytic-like profile |

Same assay, conditions: rats; reported by Addex 2010; cited from earlier work

| SMILES | activity in EPM |
| --- | --- |
| Cc1ccnc(Nc2nc(-c3cn[nH]c3)c(C)s2)n1 [ADX88178] | active |

Tested on: rodent
Experiment: not given
Conditions: 6-OHDA rodent model of PD; cited from earlier work

| SMILES | neuroprotection |
| --- | --- |
| N[C@@H](CCP(=O)(O)O)C(=O)O [L-AP4, (2S)-2-amino-4-phosphonobutanoic acid] | neuroprotective effects |
